We go through six molecules from patent US10207991B2, “Isoindoline compositions and methods for treating neurodegenerative disease” (priority 2014, dated 2019).

Series [1] has as its system caspase-3 activation in tumor cells. Particulars: cited from earlier work.
For series [2], the system named is caspase-3 activation in neurons. Particulars: cited from earlier work.
Another series relates to neurons. The note with it: 24 hours; cited from earlier work.
The subject of series [3] is MDA-MB-435 or MDA-MB231 or SKOV-3 cells. The series can be described thus: Tumor cell viability (MTS) assay. The series is classed as cell-based. The protocol:
The cytotoxicity of test compounds is determined using the CellTiter96 Aqueous One Solution Assay (Promega, Madison, Wis.). Briefly, MDA-MB-435 or MDA-MB231 or SKOV-3 cells were seeded in a 96-well plate at a density of 2000 cells/well on the day prior to treatment with sigma-2 receptor selective ligands. […] The plate is read at 490 nm in a Victor3 plate reader (PerkinElmer Life and Analytical Sciences, Shelton, Conn.). The EC^50 value, defined as the concentration of the sigma ligand required to inhibit cell viability by 50% relative to untreated cells, is determined from the dose response curve for each cell line. Siramesine is accepted as an agonist.

For another series, the target named is Sigma-2 receptor (Rattus norvegicus (Rat), UniProt Q5U3Y7). The series can be described thus: Sigma-2 receptor competitive radioligand binding assay. The note with it: read-out: Sigma-2 Receptor Affinity, Ki.
Sigma-2 receptor, sequence (Q5U3Y7 whole entry): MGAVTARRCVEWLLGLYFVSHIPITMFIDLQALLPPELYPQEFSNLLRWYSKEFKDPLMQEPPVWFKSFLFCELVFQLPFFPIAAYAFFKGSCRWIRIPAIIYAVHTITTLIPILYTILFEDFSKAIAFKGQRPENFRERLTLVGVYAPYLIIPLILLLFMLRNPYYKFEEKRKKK
The nature of series [4]: Mouse liver microsome (MLM) stability. Type of series: in vitro ADME. The protocol: A first pharmacokinetic study was performed in microsomes of mice mouse liver microsomes, MLM) by a commercial contract research organization. The studies were performed according to Obach, R. S et al. (1997) J. Pharmacol. Exp. Ther., 283: 46-58, which is incorporated herein by reference.
For orientation: Liver microsomes are vesicles of endoplasmic reticulum, rich in cytochrome P450 enzymes.

Structures are written as SMILES. “Also recorded” adds a separate entry of the source.

Protocol for Sigma-2 receptor: Radioligand binding assays for Sigma-1 receptors and Sigma-2 receptors were carried out by a commercial contract research organization. For Sigma-1 binding, various concentrations of test compounds from 100 μM to 1 nM were used to displace 8 nM [^3H](+)pentazocine from endogenous receptors on Jurkat cell membranes (Ganapathy M E et al. 1991, J Pharmacol. Exp. Ther. 289:251-260). 10 μM Haloperidol was used to define non-specific binding. For Sigma-2 receptors various concentrations of test compounds from 100 μM to 1 nM were used to displace 5 nM [^3H] […] (Bowen W D, et al. 1993, Mol. Neuropharmcol 3:117-126). 10 μM Haloperidol was used to define non-specific binding. […] Radioactivity on the dried filter discs was measured using a liquid scintillation analyzer (Tri-Carb 2900TR; PerkinElmer Life and Analytical Sciences). The displacement curves were plotted and the Ki values of the test ligands for the receptor subtypes were determined using GraphPad Prism (GraphPad Software Inc., San Diego, Calif.). The percentage specific binding was determined by dividing the difference between total bound (disintegrations per minute) and nonspecific bound (disintegrations per minute) by the total bound (disintegrations per minute).
The affinity of candidate sigma-2 ligand compounds at sigma-1 and sigma-2 receptors was also determined by displacement of different known labeled sigma-2 or sigma-1 ligands. […]

Consider `COc1ccc(C)cc1NC(=O)OC1C[C@H]2CCC[C@@H](C1)N2CCCCCCN` (stereo partly drawn) [SV-119], for which the caspase-3 activation entry in series [1] and in series [2] was “activate caspase-3” throughout. The “nuclear morphology / nuclear intensity compared to vehicle” value with neurons is “cause significant abnormal nuclear morphology”. In series [3], the Action entry is reported as “Full agonist (If the EC50s of a sigma-2 ligand test compound is less than 2 fold of EC50 of siramesine, this sigma-2 ligand test compound is considered as an agonist)”.

As to `CC(C)(C)Oc1cc(CCC(C)(C)N2Cc3cccc(C(=O)O)c3C2)ccc1O` [compound 75], the Ki (in general, the dissociation constant of the complex between target and ligand, obtained from inhibition or displacement) at Sigma-2 receptor was over 10 µM.

Turning to `Fc1ccc(-n2cc(CCCCN3CCC4(CC3)OCc3ccccc34)c3ccccc32)cc1` [Siramesine], the figures for the caspase-3 activation result in series [1] and in series [2] were “activate caspase-3; also recorded: induces caspase-3 activity” and “activate caspase-3”, respectively. Also, the “nuclear morphology / nuclear intensity compared to vehicle” value in the series with neurons is listed as “cause significant abnormal nuclear morphology”.

Consider `COc1cc2c(cc1OC)CN(CCCCNC(=O)c1cc(C)ccc1OC)CC2` [RHM-1, N-[4-(3,4-dihydro-6,7-dimethoxyisoquinolin-2(1H)-yl)butyl]-2-methoxy-5-methylbenzamide], for which, in series [1], the caspase-3 activation entry is recorded as “do not induce caspase-3 activity” and the “inhibition of caspase-3 activation” value is “inhibits the activation”. For the same molecule, in series [2], the “block of caspase-3 activation by agonist SV-119” value is reported as “not able to block activation” and the caspase-3 activation result is on record as “do not induce caspase-3 activity”. For the same molecule, in the series on neurons, the “nuclear morphology / nuclear intensity compared to vehicle” value is recorded as “do not decrease nuclear intensity”.

For `C[C@H](CCc1ccc(O)c(OC(C)(C)C)c1)N1Cc2ccc(S(C)(=O)=O)cc2C1` [compound 63], in series [4], the “Mouse liver microsomes, MLM t½” value was 31 min.

For `CC(C)Oc1cc(CCC(C)(C)N2Cc3cc4c(cc3C2)OCO4)ccc1O` [compound 29], the “Mouse liver microsomes, MLM t½” value in series [4] worked out at 6 min.
